Measurements: ChEMBL document CHEMBL5712922, “Synergistic effects of type I PRMT and PARP inhibitors against non-small cell lung cancer cells” (Clin Epigenetics, 2021)
Structures can show the parent of a compound that is named as a salt. Residues, ends and D or L forms follow the SMILES beside them.

test system: A549; assay: Antiproliferative against human A549 cells assessed as viable cells pretreated with MS023 for 24 hrs followed by compound addition at 10 uM measured after for 24 hrs relative to control; conditions: A549, 24 h, read-out: Activity

| Compound | viability at 10 µM [%] |
| --- | --- |
| CCN(CC)Cc1ccc2cc(COC(=O)Nc3ccc(C(=O)NO)cc3)ccc2c1 [GIVINOSTAT] | 54.2 |
| O=C(O)c1ccc(Nc2ncc3c(n2)-c2ccc(Cl)cc2C(c2c(F)cccc2F)=NC3)cc1 [MLN-8054] | 54.2 |
| Nc1ncn([C@H]2C[C@H](O)[C@@H](CO)O2)c(=O)n1 [DECITABINE] | 54.2 |
| COc1cc(-c2cn(C)c(=O)c3cnccc23)cc(OC)c1CN(C)C | 54.2 |
| N[C@H]1C[C@@H]1c1ccc(-c2cccc(O)c2)cc1 | 54.2 |
| O=C(O)[C@H](Cc1c[nH]c2ccccc12)N1C(=O)c2ccccc2C1=O | 54.2 |
| CCS(=O)(=O)Nc1ccc2c(c1)/C(=C(/Nc1ccc(CN3CCCCC3)cc1)c1ccccc1)C(=O)N2 [HESPERADIN] | 54.2 |
| CCN(CC)CCNC(=O)c1ccc(N)cc1 [PROCAINAMIDE HYDROCHLORIDE] | 54.2 |
| CNNCc1ccc(C(=O)NC(C)C)cc1 | 54.2 |
| CC(C)[C@H](C(=O)Nc1ccc(C(=O)NO)cc1)c1ccccc1 [AR-42] | 54.2 |
| CN(CC[C@H](N)CC(=O)N[C@H]1C=C[C@H](n2ccc(N)nc2=O)O[C@@H]1C(=O)O)C(=N)N | 54.2 |
| COc1cc2c(NC3CCN(CC4CCCCC4)CC3)nc(N3CCCN(C(C)C)CC3)nc2cc1OCCCN1CCCCC1 | 54.2 |
| CN(C)Cc1ccc(-c2nc3cccc4c3n2CCNC4=O)cc1 | 54.2 |
| O=C1NC(=O)/C(=C/c2cccc(C(F)(F)F)c2)S1 | 54.2 |
| NC(=O)c1ncn([C@@H]2O[C@H](CO)[C@@H](O)[C@H]2O)c1O [MIZORIBINE] | 54.2 |
| CC(C)c1cc2c(N3CCN(C4=NCC(C)(C)S4)CC3)ncnc2s1 | 54.2 |
| Nc1ccccc1NC(=O)c1ccc(CNc2nccc(-c3cccnc3)n2)cc1 [MOCETINOSTAT] | 54.2 |
| O=C([C@@H](Cc1cccc(C(F)(F)F)c1)NS(=O)(=O)c1cc(F)c2c(c1)CCNC2)N1CCCC1 | 54.2 |
| Nc1nc(OCc2cc(Br)cs2)c2[nH]cnc2n1 [LOMEGUATRIB] | 54.2 |
| O=C(O)C(O)C(O)C(=O)O (configuration not stated) [TARTARIC ACID] | 54.2 |
| Cc1sc2c(c1C)C(c1ccc(Cl)cc1)=N[C@@H](CC(=O)OC(C)(C)C)c1nnc(C)n1-2 | 54.2 |
| COc1cccc2c1C(=O)c1c(O)c3c(c(O)c1C2=O)C[C@@](O)(C(=O)CO)C[C@@H]3O[C@H]1C[C@H](N)[C@H](O[C@@H]2CCCCO2)[C@H](C)O1 [PIRARUBICIN] | 54.2 |
| C[C@H](NC(=O)CCc1nc2ccccc2c(=O)[nH]1)c1ccccc1 | 54.2 |
| COc1cc2nc(N3CCCC3)nc(NCCCCCN3CCCC3)c2cc1OC | 54.2 |
| O=C(O)CCNc1cc(N2CCc3ccccc3CC2)nc(-c2ccccn2)n1 | 54.2 |
| O=c1c(O)c(-c2ccc(O)c(O)c2)oc2cc(O)cc(O)c12 [QUERCETIN] | 54.2 |

| Compound | viability at 10 µM [%] |
| --- | --- |
| N#CCNC(=O)c1ccc(-c2ccnc(Nc3ccc(N4CCOCC4)cc3)n2)cc1 [MOMELOTINIB] | 54.2 |
| CC(C)C[C@H](NC(=O)[C@H](Cc1ccccc1)NC(=O)[C@H](CCC(N)=O)NC(=O)[C@H](Cc1ccc(O)cc1)NC(=O)[C@H](C)NC(=O)CNC(=O)[C@H](CCCCN)NC(=O)[C@H](Cc1c[nH]c2ccccc12)NC(=O)[C@@H](NC(=O)[C@H](Cc1c[nH]c2ccccc12)NC(=O)[C@H](CCCCN)NC(=O)CNC(=O)[C@H](CC(N)=O)NC(=O)[C@H](CCC(=O)O)NC(=O)[C@H](Cc1c[nH]c2ccccc12)NC(=O)[C@@H](NC(=O)[C@H](Cc1c[nH]c2ccccc12)NC(=O)[C@H](CO)NC(=O)CNC(=O)[C@@H]1CCCN1C(=O)[C@H](Cc1c[nH]c2ccccc12)NC(=O)[C@H](CCC(N)=O)NC(=O)[C@H](Cc1ccccc1)NC(=O)CNC(=O)[C@@H](N)Cc1cnc[nH]1)[C@@H](C)O)[C@@H](C)O)C(=O)N[C@@H](CCCCN)C(=O)NCC(=O)NCC(=O)NCC(=O)NCC(=O)N[C@@H](CO)C(=O)N[C@@H](CCCNC(=N)N)C(=O)N[C@@H](CCCNC(=N)N)C(=O)N[C@@H](CCCNC(=N)N)C(=O)N[C@@H](CCCNC(=N)N)C(=O)N[C@@H](CCCNC(=N)N)C(=O)N[C@@H](CCCNC(=N)N)C(=O)N[C@@H](CCCNC(=N)N)C(=O)N[C@@H](CCCNC(=N)N)C(=O)N[C@@H](CCCNC(=N)N)C(=O)O (H-HGFQWPGSWTWENGKWTWKGAYQFLKGGGGSRRRRRRRRR-OH) | 54.2 |
| NC(=O)c1cccc(N)c1 [3-AMINOBENZAMIDE] | 54.2 |
| c1ccc([C@@H]2C[C@H]2NC2CCNCC2)cc1 | 54.2 |
| O=C(NC[C@H](O)CN1CCc2ccccc2C1)c1ccnc(NC2CCC2)c1 | 54.2 |
| CCn1c2ccccc2c2cc(CNCc3ccccc3OC)ccc21 | 54.2 |
| COc1ccccc1S(=O)(=O)Nc1ccc2c(c1)CN(C)C(=O)N2 | 54.2 |
| O=c1oc2c(O)c(O)cc3c(=O)oc4c(O)c(O)cc1c4c23 [ELLAGIC ACID] | 54.2 |
| CCCC(CCC)C(=O)O [VALPROIC ACID] | 54.2 |
| Nc1ccn([C@@H]2O[C@H](CO)[C@@H](O)[C@@H]2O)c(=O)n1 [CYTARABINE] | 54.2 |
| Cc1cc(Nc2cc(N3CCN(C)CC3)nc(/C=C/c3ccccc3)n2)n[nH]1 [ENMD-2076] | 54.2 |
| Nc1ccccc1NC(=O)c1ccc(CNC(=O)OCc2cccnc2)cc1 [ENTINOSTAT] | 54.2 |
| O=C(NC[C@H](O)CN1CCc2ccccc2C1)c1cc(NC2COC2)ncn1 | 54.2 |
| O=C(Nc1nc2cccc(-c3ccc(CN4CCS(=O)(=O)CC4)cc3)n2n1)C1CC1 [FILGOTINIB] | 54.2 |
| COc1cc2c(cc1O)CC[C@@H]1[C@@H]2CC[C@]2(C)[C@@H](O)CC[C@@H]12 [2-METHOXYESTRADIOL] | 54.2 |
| O=C(c1cncc(Br)c1)N1CCC(N2CCCC2)CC1 | 54.2 |
| CN(C)Cc1c(C(=O)NCCOc2ccc(C(=O)NO)cc2)oc2ccccc12 [ABEXINOSTAT] | 54.2 |
| Cc1cnc(Nc2ccc(OCCN3CCCC3)cc2)nc1Nc1cccc(S(=O)(=O)NC(C)(C)C)c1 [FEDRATINIB] | 54.2 |
| CC(C)N(CCCNC(=O)Nc1ccc(C(C)(C)C)cc1)C[C@H]1O[C@@H](n2cc(Br)c3c(N)ncnc32)[C@H](O)[C@@H]1O | 54.2 |
| N[C@H]1CC[C@H](N[C@@H]2C[C@H]2c2ccccc2)CC1 | 54.2 |
| CCCCCCCCCCCCCCCc1cccc(O)c1C(=O)O [ANACARDIC ACID] | 54.2 |
| CC1COc2c(N3CCN(C)CC3)c(F)cc3c(=O)c(C(=O)O)cn1c23 (configuration not stated) [OFLOXACIN] | 54.2 |
| N[C@@H]1C[C@H]1c1ccccc1 [TRANYLCYPROMINE HYDROCHLORIDE] | 54.2 |
| CC(=O)Nc1ccc(C(=O)Nc2ccccc2N)cc1 [TACEDINALINE] | 54.2 |
| O=C(NCC(=O)N1CCCC1)Nc1ccc2cnccc2c1 | 54.2 |
| N[C@@H]1CCCN(c2c(/C=C3\SC(=O)NC3=O)cccc2-c2ccccc2)C1 | 54.2 |

| Compound | viability at 10 µM [%] |
| --- | --- |
| O=C(c1ccc(C(=O)N2CCC(N3CCCC3)CC2)c(Nc2ccccc2)c1)N1CCC(N2CCCC2)CC1 | 54.2 |
| CN1CCC(CNc2ccc3ncc(-c4cccc(OC(F)(F)F)c4)n3n2)CC1 [SGI-1776] | 54.2 |
| C#Cc1cccc(Nc2ncnc3cc(OC)c(OCCCCCCC(=O)NO)cc23)c1 [CUDC-101] | 54.2 |
| O=C(O)c1ccc(O)c2ncccc12 | 54.2 |
| Cc1cc(Nc2cc(CN3CCOCC3)c3nc(C)c(Cc4ccc(Cl)cc4F)n3n2)n[nH]1 [GANDOTINIB] | 54.2 |
| CCCCc1nc2cc(/C=C/C(=O)NO)ccc2n1CCN(CC)CC [PRACINOSTAT] | 54.2 |
| CC[C@@](C)(Nc1ccnc(-c2c[nH]c3ncccc23)n1)C(=O)NCC(F)(F)F [DECERNOTINIB] | 54.2 |
| CC(NC(=O)c1ccccc1/N=C/c1c(O)ccc2ccccc12)c1ccccc1 (configuration not stated) [SIRTINOL] | 54.2 |
| CCCCN(Cc1ccc(C(=O)NO)cc1)C(=O)Nc1ccccc1 [NEXTURASTAT A] | 54.2 |
| O=C(/C=C/c1cccc(S(=O)(=O)Nc2ccccc2)c1)NO [BELINOSTAT] | 54.2 |
| Nc1ccn([C@@H]2O[C@H](CO)[C@@H](O)C2(F)F)c(=O)n1 [GEMCITABINE] | 54.2 |
| CCCCCCCCCC(=O)N[C@@H](Cc1c[nH]c2ccccc12)C(=O)N[C@H](CC(N)=O)C(=O)N[C@@H](CC(=O)O)C(=O)N[C@@H]1C(=O)NCC(=O)N[C@@H](CCCN)C(=O)N[C@@H](CC(=O)O)C(=O)N[C@H](C)C(=O)N[C@@H](CC(=O)O)C(=O)NCC(=O)N[C@H](CO)C(=O)N[C@@H]([C@H](C)CC(=O)O)C(=O)N[C@@H](CC(=O)c2ccccc2N)C(=O)O[C@@H]1C | 54.2 |
| COc1cc2c(Nc3ccc(NC(=O)c4ccccc4)cc3)ncnc2cc1OCCCN1CCOCC1 | 54.2 |
| Cc1sc2c(c1C)C(c1ccc(Cl)cc1)=N[C@@H](CC(=O)Nc1ccc(O)cc1)c1nnc(C)n1-2 [BIRABRESIB] | 54.2 |
| Cc1cc(Cl)ccc1OCCCC(=O)NO | 54.2 |
| CCNC(=O)C[C@@H]1N=C(c2ccc(Cl)cc2)c2cc(OC)ccc2-n2c(C)nnc21 [MOLIBRESIB] | 54.2 |
| CN(C)c1ccc(C(=O)NCCCCCCC(=O)NO)cc1 | 54.2 |
| CCn1cc(-c2cccc(C(F)(F)F)c2)c2sc(C(=N)NC3CCS(=O)(=O)CC3)cc2c1=O | 54.2 |
| Clc1ccc(N/N=C(\c2ccccc2)c2ccccn2)nc1 | 54.2 |
| O=C(COc1cccc2c(=O)[nH]ccc12)c1ccccc1 | 54.2 |
| COc1ccc(C(=O)C2CCN(CC(=O)N(Cc3nc4c(c(=O)[nH]3)COCC4)CC3CC3)CC2)cc1 | 54.2 |
| CCCOc1ccc(CCc2nc3cc(-c4c(C)noc4C)ccc3n2CCN2CCOCC2)cc1 | 54.2 |
| Cc1cc(Nc2ccc(NC(=O)c3ccc(Nc4ccnc5ccccc45)cc3)cc2)nc(N)n1 | 54.2 |
| CCN(CCO)CCCOc1ccc2c(Nc3cc(CC(=O)Nc4cccc(F)c4)[nH]n3)ncnc2c1 [DEFOSBARASERTIB] | 54.2 |
| CN1CCN(c2cccc(Nc3nc4c(-c5ccc(S(C)(=O)=O)cc5)cccn4n3)c2)CC1 | 54.2 |
